Assay [1] concerns PI3-K in BT20 cells (phosphorylation of AKT at serine 473). The experiment in a line: PI3-Kα Cellular Assay (AKT Ser473 phosphorylation ELISA in BT20 cells). In kind it is cell-based, human. The note with it: Homo sapiens, BT-20, pAKT Ser473 ELISA, 1 hour incubation. The gist of the method: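 Cells seeded overnight in 0.5% FBS, then exposed 1 h at 37 °C to an 11-concentration 1:3 dilution series, in duplicate.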

A further assay addresses PI3-Kα (Mus musculus (Mouse), UniProt P42337). As to the kind of experiment: PI3-Kα Biochemical Assay (fluorescence polarization kinase assay). The protocol:
Compounds of the present invention were evaluated for potency against PI3-Kα using an in vitro kinase assay. PI3-Kα activity is measured in vitro by determining the level of phosphorylation of the substrate PI(4,5)P2. The formation of product PI(3,4,5)P3 is monitored by binding to the Grip1 PH domain in a ligand displacement fluorescence polarization (FP) assay, in which the TAMRA-labeled PI(3,4,5)P3 complexed with Grip1 PH domain is displaced by PI(3,4,5)P3 formed in the PI3-Kα reaction resulting in a decrease in FP signal. Mouse PI3-Kα P110 and P85 subunits were co-expressed in insect cells and co-purified to homogeneity. PI(4,5)P2 were obtained from Cayman. TAMRA-labeled PI(3,4,5)P3 were from Echelon, Grip1 PH domain from Dundee and other reagents were from Sigma.
All assays were performed in a Corning solid black 96-well half area plate using LJL Analyst (Molecular Devices) at room temperature. The assay buffer contained 50 mM HEPES, pH 7.4, 150 mM NaCl, 5 mM DTT, and 0.05% CHAPS. Dry powder PI(4,5)P2 was dissolved in 50 mM TRIS, pH 8 to make 1 mM stock solution. The PI(4,5)P2 stock solution was then diluted in the assay buffer to 60 μM, and sonicated for 30 sec before use. To the assay plate, the following reagents were added in sequence: 10 μL of 60 μM PI(4,5)P2, 5 μL of 4 nM PI3-Kα, 2 μL of compound in 25% DMSO, 3 μL of mixture containing 200 μM ATP and 33 mM MgCl2. The final volume for the reaction was 20 μL. The reaction mixture was incubated at room temperature for 35 min. The reaction was then stopped by 20 μL of 20 mM EDTA. […] The FP signal was allowed to develop for 40 min before reading on a LJL analyst at excitation 535 nm and emission 580 nm.
The percentage of inhibition was calculated based on the following equation % inhibition=[1−(FPcompound−FPmax)/(FPmin−FPmax)]×100, where FPcompound is the FP reading at a given compound concentration, FPmin is the FP signal of the PI3-Kα reaction in the absence of a compound, and FPmax is the background FP signal in the absence of PI3-Kα and a compound. The IC50 was determined by fitting the FP signal vs. compound concentration to a sigmoidal dose response equation using GraphPad Prism curve fitting program.
(Polarisation of emitted light reports the rotation of a fluorescent probe.)

Experimental findings from US8633204B2 (Pfizer Inc., priority 2006, dated 2014) are described below.

Bounds are passed on as bounds.

Sequence of PI3-Kα (P42337 whole entry, the tested form may be a part): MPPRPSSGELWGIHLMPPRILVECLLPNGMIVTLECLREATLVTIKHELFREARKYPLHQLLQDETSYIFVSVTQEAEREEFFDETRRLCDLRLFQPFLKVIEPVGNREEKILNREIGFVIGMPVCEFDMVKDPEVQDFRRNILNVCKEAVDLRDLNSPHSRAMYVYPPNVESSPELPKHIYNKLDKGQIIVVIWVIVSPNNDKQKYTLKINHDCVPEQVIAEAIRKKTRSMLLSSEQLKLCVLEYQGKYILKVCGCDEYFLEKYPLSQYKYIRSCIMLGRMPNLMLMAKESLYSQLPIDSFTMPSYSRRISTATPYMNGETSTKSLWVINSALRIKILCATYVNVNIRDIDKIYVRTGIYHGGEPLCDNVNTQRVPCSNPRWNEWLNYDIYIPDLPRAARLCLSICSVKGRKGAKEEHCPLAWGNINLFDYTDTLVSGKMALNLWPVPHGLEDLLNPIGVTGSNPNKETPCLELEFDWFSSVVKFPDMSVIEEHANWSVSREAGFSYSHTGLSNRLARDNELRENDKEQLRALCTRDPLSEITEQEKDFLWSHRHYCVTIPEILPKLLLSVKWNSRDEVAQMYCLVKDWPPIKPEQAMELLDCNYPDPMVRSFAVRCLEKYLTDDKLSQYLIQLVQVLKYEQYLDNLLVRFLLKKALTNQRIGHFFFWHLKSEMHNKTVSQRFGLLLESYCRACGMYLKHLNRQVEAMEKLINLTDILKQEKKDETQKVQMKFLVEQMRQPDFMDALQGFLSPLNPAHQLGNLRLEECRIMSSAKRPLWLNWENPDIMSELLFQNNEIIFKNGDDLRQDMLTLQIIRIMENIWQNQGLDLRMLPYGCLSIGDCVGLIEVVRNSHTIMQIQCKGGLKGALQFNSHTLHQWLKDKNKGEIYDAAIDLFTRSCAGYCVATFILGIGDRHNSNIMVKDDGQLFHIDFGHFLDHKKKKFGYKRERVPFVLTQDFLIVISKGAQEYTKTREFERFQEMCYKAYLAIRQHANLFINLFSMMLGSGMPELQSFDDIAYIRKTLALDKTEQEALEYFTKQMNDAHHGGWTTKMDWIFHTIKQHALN
Sequence of PI3-Kα (P26450 whole entry partner, the tested form may be a part): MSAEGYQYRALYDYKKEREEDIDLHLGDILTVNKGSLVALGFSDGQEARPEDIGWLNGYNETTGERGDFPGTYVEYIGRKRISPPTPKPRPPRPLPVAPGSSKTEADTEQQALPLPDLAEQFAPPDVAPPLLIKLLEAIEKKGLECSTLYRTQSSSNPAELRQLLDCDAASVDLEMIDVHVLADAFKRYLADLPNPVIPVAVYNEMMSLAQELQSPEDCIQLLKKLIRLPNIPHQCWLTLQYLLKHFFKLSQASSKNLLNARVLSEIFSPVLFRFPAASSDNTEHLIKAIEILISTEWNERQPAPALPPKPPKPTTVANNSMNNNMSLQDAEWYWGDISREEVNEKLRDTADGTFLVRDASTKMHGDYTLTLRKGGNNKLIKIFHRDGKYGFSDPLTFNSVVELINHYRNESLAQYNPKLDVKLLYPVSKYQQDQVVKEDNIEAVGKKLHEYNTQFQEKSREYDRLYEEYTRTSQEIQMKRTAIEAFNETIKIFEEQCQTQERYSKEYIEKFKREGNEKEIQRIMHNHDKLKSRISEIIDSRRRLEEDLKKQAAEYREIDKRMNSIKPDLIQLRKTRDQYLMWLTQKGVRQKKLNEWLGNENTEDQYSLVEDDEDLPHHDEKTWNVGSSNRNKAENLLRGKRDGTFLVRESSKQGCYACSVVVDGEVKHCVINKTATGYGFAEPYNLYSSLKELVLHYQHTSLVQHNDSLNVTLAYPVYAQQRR

One may read the IC50 as the concentration at which inhibition is half-maximal. Low readings indicate greater potency, high ones weaker potency. For `CCNc1nc(C)c2cc(CCC(=O)O)c(=O)n(C3CCCC3)c2n1` [Compound 130, 3-(8-Cyclopentyl-2-(ethylamino)-4-methyl-7-oxo-7,8-dihydropyrido[2,3-d]pyrimidin-6-yl)propanoic acid], the IC50 in assay [1] stood at 10000 nM; against PI3-Kα it was 54 nM.
For the compound `CCNc1nc(C)c2cc(-c3cccnc3N)c(=O)n(C3CCCC3)c2n1` [Compound 131, 6-(2-aminopyridin-3-yl)-8-cyclopentyl-2-(ethylamino)-4-methylpyrido[2,3-d]pyrimidin-7(8H)-one], the half-inhibitory concentration (IC50) was 7980 nM in assay [1] and 3400 nM on PI3-Kα.
Regarding `CCNc1nc(C)c2cc(CCC(=O)OCC)c(=O)n(C3CCCC3)c2n1` [Compound 132, Ethyl 3-(8-cyclopentyl-2-(ethylamino)-4-methyl-7-oxo-7,8-dihydropyrido[2,3-d]pyrimidin-6-yl)propanoate], the IC50 in assay [1] was 10000 nM; at PI3-Kα, 5500 nM.
On to `CNc1nc(C)c2cc(C#N)c(=O)n(C3CCCC3)c2n1` [Compound 133, 2-Methylamino-6-carbonitrile-8-cyclopentyl-4-methylpyrido[2,3-d]pyrimidin-7(8H)-one], for which the IC50 in assay [1] came to 603 nM; against PI3-Kα it was 60 nM.
Take `CNc1nc(C)c2cc(-c3ncccc3F)c(=O)n(C3CCCC3)c2n1` [Compound 134, 8-cyclopentyl-6-(3-fluoropyridin-2-yl)-4-methyl-2-(methylamino)pyrido[2,3-d]pyrimidin-7(8H)-one]: the IC50 worked out at 8300 nM in assay [1] and 2100 nM at PI3-Kα.
Consider `CCNc1nc(C)c2cc(-c3cnc4[nH]ccc4c3)c(=O)n(C3CCCC3)c2n1` [Compound 135, 8-cyclopentyl-2-(ethylamino)-4-methyl-6-(1H-pyrrolo[2,3-b]pyridin-5-yl)pyrido[2,3-d]pyrimidin-7(8H)-one], for which the values for the IC50 (in assay [1]; on PI3-Kα) were 46.1 nM and 1.77 nM, respectively.
For `COc1cc(-c2cc3c(C)nc(N)nc3n(C3CCCC3)c2=O)ccc1O` [Compound 137, 2-amino-8-cyclopentyl-6-(4-hydroxy-3-methoxyphenyl)-4-methylpyrido[2,3-d]pyrimidin-7(8H)-one], the half-maximal inhibitory concentration (IC50) in assay [1] worked out at 19 nM; against PI3-Kα, 0.989 nM.
The matching figures for `CNc1nc(C)c2cc(-c3ccc(Cl)nc3)c(=O)n(C3CCCC3)c2n1` [Compound 138, 6-(6-chloropyridin-3-yl)-8-cyclopentyl-4-methyl-2-(methylamino)pyrido[2,3-d]pyrimidin-7(8H)-one]: 146 nM and 29.7 nM.
The matching figures for `CCNc1nc(C)c2cc(-c3cccc(OC)c3)c(=O)n(C3CCCC3)c2n1` [Compound 142, 8-cyclopentyl-2-(ethylamino)-6-(3-methoxyphenyl)-4-methylpyrido[2,3-d]pyrimidin-7(8H)-one]: 1390 nM and 792 nM.
Consider `CNc1nc(C)c2cc(-c3cccc(OC)c3)c(=O)n(C3CCCC3)c2n1` [Compound 143, 8-cyclopentyl-6-(3-methoxyphenyl)-4-methyl-2-(methylamino)pyrido[2,3-d]pyrimidin-7(8H)-one], for which the values for the IC50 (in assay [1]; at PI3-Kα) were 669 nM and 244 nM, respectively.
The matching figures for `COc1cccc(-c2cc3c(C)nc(N)nc3n(C3CCCC3)c2=O)c1` [Compound 145, 2-amino-8-cyclopentyl-6-(3-methoxyphenyl)-4-methylpyrido[2,3-d]pyrimidin-7(8H)-one]: 622 nM and 168 nM.
As to `CNc1nc(C)c2cc(-c3cccc(O)c3)c(=O)n(C3CCCC3)c2n1` [Compound 146, 8-cyclopentyl-6-(3-hydroxyphenyl)-4-methyl-2-(methylamino)pyrido[2,3-d]pyrimidin-7(8H)-one], the IC50 in assay [1] was determined as 1.76 nM; against PI3-Kα, 0.731 nM.
With `Cc1nc(N)nc2c1cc(-c1cccc(O)c1)c(=O)n2C1CCCC1` [Compound 147, 2-Amino-8-cyclopentyl-6-(3-hydroxyphenyl)-4-methylpyrido[2,3-d]pyrimidin-7(8H)-one], the 50% inhibitory concentration (IC50) in assay [1] turned out to be 4.84 nM; against PI3-Kα, 0.524 nM.
The matching figures for `CNc1nc(C)c2cc(-c3cccc(CO)c3)c(=O)n(C3CCCC3)c2n1` [Compound 148, 8-Cyclopentyl-6-(3-(hydroxymethyl)phenyl)-4-methyl-2-(methylamino)pyrido[2,3-d]pyrimidin-7(8H)-one]: 14.7 nM and 4.78 nM.
`COc1ccc(Cn2c(=O)c(-c3ccccc3)cc3c(C)nc(N)nc32)cc1` [Compound 149, 8-(4-Methoxybenzyl)-2-amino-4-methyl-6-phenylpyrido[2,3-d]pyrimidin-7(8H)-one]: the IC50 was above 10000 nM in assay [1] and 310 nM against PI3-Kα.
`Cc1nc(N)nc2c1cc(-c1ccccc1)c(=O)n2Cc1ccc(Cl)cc1` [Compound 150, 8-(4-Chlorobenzyl)-2-amino-4-methyl-6-phenylpyrido[2,3-d]pyrimidin-7(8H)-one]: the IC50 was above 10000 nM in assay [1] and 1400 nM against PI3-Kα.
Consider `Cc1nc(N)nc2c1cc(-c1ccncc1)c(=O)n2Cc1ccc(Cl)cc1` [Compound 151, 8-(4-Chlorobenzyl)-2-amino-4-methyl-6-(pyridin-4-yl)pyrido[2,3-d]pyrimidin-7(8H)-one], for which the IC50 in assay [1] is above 10000 nM; against PI3-Kα, 4900 nM.
For `Cc1nc(N)nc2c1cc(-c1cnn(C)c1)c(=O)n2[C@H]1CC[C@H](O)CC1` [Compound 154, 2-amino-8-(trans-4-hydroxycyclohexyl)-4-methyl-6-(1-melhyl-1H-pyrazol-4-yl)pyrido[2,3-d]pyrimidin-7(8H)-one], the IC50 is 475 nM in assay [1] and 18 nM at PI3-Kα.
On to `COc1ccc(-c2cc3c(C)nc(N)nc3n([C@@H]3CC[C@H](O)C3)c2=O)cn1` [Compound 155, 2-amino-8-[(1R,3S)-3-hydroxycyclopentyl]-6-(6-methoxypyridin-3-yl)-4-methylpyrido[2,3-d]pyrimidin-7(8H)-one], for which the IC50 in assay [1] amounted to 82.9 nM; against PI3-Kα, 11 nM.
`Cc1nc(N)nc2c1cc(-c1cn[nH]c1)c(=O)n2[C@H]1CC[C@H](O)CC1` [Compound 156, 2-amino-8-(trans-4-hydroxycyclohexyl)-4-methyl-6-(1H-pyrazol-4-yl)pyrido(2,3-d]pyrimidin-7(8H)-one]: the IC50 in assay [1] came to 169 nM; on PI3-Kα, 6.7 nM.
As to `Cc1nc(N)nc2c1cc(-c1cnc3[nH]ccc3c1)c(=O)n2[C@H]1CC[C@H](O)CC1` [Compound 158, 2-amino-8-(trans-4-hydroxycyclohexyl)-4-methyl-6-(1H-pyrrolo[2,3-b]pyridin-5-yl)pyrido[2,3-d]pyrimidin-7(8H)-one], the concentration for half-maximal inhibition (IC50) in assay [1] is 31.9 nM; against PI3-Kα it was 1.3 nM.
`COc1ccc(-c2cc3c(C)nc(N)nc3n([C@@H]3CC[C@@H](O)C3)c2=O)cn1` [Compound 159, 2-amino-8-[(1R,3R)-3-hydroxycyclopentyl]-6-(6-methoxypyridin-3-yl)-4-methylpyrido[2,3-d]pyrimidin-7(8H)-one]: the values for the concentration for half-maximal inhibition (IC50) (in assay [1]; at PI3-Kα) were 87.6 nM and 4.6 nM, respectively.
The matching figures for `Cc1nc(N)nc2c1cc(-c1cnc3[nH]ccc3c1)c(=O)n2[C@@H]1CC[C@H](O)C1` [Compound 163, 2-amino-8-[(1R,3S)-3-hydroxycyclopentyl]-4-methyl-6-(1H-pyrrolo[2,3-b]pyridin-5-yl)pyrido[2,3-d]pyrimidin-7(8H)-one]: 20.4 nM and 1.2 nM.
Take `Cc1nc(N)nc2c1cc(-c1cnc3[nH]ccc3c1)c(=O)n2[C@@H]1CC[C@@H](O)C1` [Compound 165, 2-amino-8-[(1R,3R)-3-hydroxycyclopentyl]-4-methyl-6-(1H-pyrrolo[2,3-b]pyridin-5-yl)pyrido[2,3-d]pyrimidin-7(8H)-one]: the half-maximal inhibitory concentration (IC50) in assay [1] is 55.8 nM; at PI3-Kα, 1.2 nM.
The matching figures for `Cc1nc(N)nc2c1cc(Br)c(=O)n2[C@H]1CC[C@@H](O)CC1` [Compound 168, 2-amino-6-bromo-8-(cis-4-hydroxycyclohexyl)-4-methylpyrido[2,3-d]pyrimidin-7(8H)-one]: 228 nM and 130 nM.
With `Cc1nc(N)nc2c1cc(-c1ccc(F)cc1)c(=O)n2CC(C)(C)O` [Compound 170, 2-amino-6-(4-fluorophenyl)-8-(2-hydroxy-2-methylpropyl)-4-methylpyrido[2,3-d]pyrimidin-7(8H)-one], the results for the IC50 (in assay [1]; against PI3-Kα) were 10000 nM and 3400 nM, respectively.
